Experimental data taken from patent US20260198495A1, “BINARY INSECTICIDE COMPOSITION AND USE THEREOF” (SHENYANG SINOCHEM AGROCHEMICALS R & D CO., LTD., priority 2022, published 2026).
Converted amounts (≈) assume the structure as drawn.

Legend:
Assay type in all cases: in vivo
[1] = tested on: Frankliniella occidentalis Pergande; assay: Joint toxicity of I-72 + organophosphorus insecticides, leaf dipping, Example 14, Table 14; settings: foliar, kidney bean leaf dipping, 48 h, A = compound I-72, B = triazophos, read-out: LC50
Text: Test target: Frankliniella occidentalis Pergande, a sensitive strain reared indoors.
Experimental method: first, kidney bean leaves were selected and dipped in the prepared pesticide solution for 10 s in the order from low dosage to high dosage according to the experimental design. After natural air-drying in the shade, they were placed in a 9-cm-diameter Petri dish with filter paper, and uniform and healthy test insects were introduced, with about 20 insects for each treatment and 3 replicates for each treatment. In addition, a blank control was set up.
The treated test materials were placed in an observation room, and the temperature, humidity and illumination of the observation room could be adjusted as needed. The number of dead and live insects was investigated 48 hours later.

[2] = tested on: 2nd-instar larvae of Chilo suppressalis (Walker); assay: Joint toxicity of I-72 + carbaryl, rice stalk spraying, Example 23, Table 23
Text: In addition, a blank control was set up.
The treated test materials were placed in an observation room, and the temperature, humidity and illumination of the observation room could be adjusted as needed.

[3] = tested on: Bemisia tabaci (Gennadius) nymphs; assay: Joint toxicity of I-72 + spiromesifen, Example 27, Table 27; settings: Bemisia tabaci; A = compound I-72, B = spiromesifen; cotton leaf-disk spraying; 96 hours; read-out: LC50
Method: Test target: Bemisia tabaci (Gennadius) nymphs, a sensitive strain reared indoors.
(§1) Preparation of the pesticide solution: according to different test requirements, the test samples were accurately weighed respectively with an electronic analytical balance. The technical pesticides were dissolved in acetone, and then diluted with 0.1% Tween 80 water into a series of pesticide solutions with a certain concentration gradient according to the experimental design dosage.
Experimental method: first, cotton leaves with neat and consistent Bemisia tabaci (Gennadius) nymphs were selected and made into leaf disks, with about 20 insects on each leaf disk. Then, they were evenly sprayed with the pesticide solution in the order from low dosage to high dosage according to the experimental design, with 1.5 mL for each leaf and 3 replicates for each treatment. In addition, a blank control was set up.
(§2) The treated test materials were placed in an observation room, and the temperature, humidity and illumination of the observation room could be adjusted as needed. The number of dead and live insects was investigated 96 hours later. […] Then, the co-toxicity coefficient of each ratio was calculated using the Sun Y-P method to evaluate the mixing effect (the same as in Example 1).

[4] = tested on: adult Phyllotreta vittuta Fabr.; assay: Joint toxicity of I-72 + deltamethrin, Example 45, Table 45; settings: A = compound I-72, B = deltamethrin; potted cabbage seedling spraying; 72 hours; read-out: LC50
Method: Test target: adult Phyllotreta vittuta Fabr.
as §1
Experimental method: first, uniform and consistent potted cabbage seedlings were selected. Then, uniform spraying was performed with the pesticide solution in the order from low dosage to high dosage according to the experimental design. After air-drying in the shade, adult flea beetles were transferred onto the treated cabbage seedlings, and then glass covers were put on them, with about 30-40 adult flea beetles on each seedling and 3 replicates for each treatment. In addition, a blank control was set up.
as §2, with “72” for “96”

[5] = tested on: Myzus persicae (Sulzer) nymphs; assay: Joint toxicity of I-72 + fenvalerate, Example 46, Table 46; settings: A = compound I-72, B = fenvalerate, cabbage leaf spraying, 48 hours, read-out: LC50
Method: Test target: Myzus persicae (Sulzer) nymphs, a sensitive strain reared indoors.
as §1
Experimental method: first, cabbage leaves with uniform and consistent Myzus persicae (Sulzer) were selected, with about 30-40 insects on each leaf. Then, they were evenly sprayed with the pesticide solution in the order from low dosage to high dosage according to the experimental design, with 1.5 mL of the solution for each leaf and 3 replicates for each treatment. In addition, a blank control was set up.
as §2, with “48” for “96”

[6] = tested on: 2nd-instar larvae of Spodoptera exigua Hübner; assay: whole plant or invertebrate; settings: Spodoptera exigua, foliar; A = compound I-72, B = tetrachlorantraniliprole; cabbage leaf dipping; 72 hours; read-out: LC50
Method: Test target: 2nd-instar larvae of Spodoptera exigua Hübner.
as §1
(§3) Experimental method: first, cabbage leaves were selected and dipped in the prepared pesticide solution for 10 s in the order from low dosage to high dosage according to the experimental design. After natural air-drying in the shade, they were placed in a 9-cm-diameter Petri dish with filter paper, and uniform and healthy test insects were introduced, with 10 insects for each treatment and 3 replicates for each treatment. In addition, a blank control was set up.
The treated test materials were placed in an observation room, and the temperature, humidity and illumination of the observation room could be adjusted as needed. The number of dead and live insects was investigated 72 hours later.

[7] = tested on: Unaspis yanonensis Kuwana nymphs; assay: Joint toxicity of I-72 + afidopyropen, Example 76, Table 76; settings: Unaspis yanonensis, foliar; A = compound I-72, B = afidopyropen; citrus leaf dipping; 120 hours; read-out: LC50
Method: Test target: Unaspis yanonensis Kuwana nymphs.
as §1
Experimental method: the activity of the mixture against Unaspis yanonensis Kuwana nymphs on citrus was determined by adopting the dipping method. First, the collected citrus leaves with Unaspis yanonensis Kuwana nymphs were treated with the pesticide solution in the order from low dosage to high dosage according to the experimental design. After air-drying, the petioles were kept moist with degreased cotton, and then the leaves were placed in a Petri dish, with 3 replicates for each treatment. In addition, a blank control was set up.
as §2, with “120” for “96”

[8] = tested on: 3rd-instar larvae of Ostrinia furnacalis Guenee; assay: Joint toxicity of I-72 + pymetrozine, Example 79, Table 79; settings: A = compound I-72, B = pymetrozine, corn stem dipping, 72 hours, read-out: LC50
Method: Test target: 3rd-instar larvae of Ostrinia furnacalis Guenee.
as §1
as §3, with “tender corn stems” for “cabbage leaves”
as §2, with “72” for “96”

`CN(C(=O)c1ccc2c(c1)OC(F)(F)O2)c1cccc(C(=O)Nc2c(Br)cc(C(F)(C(F)(F)F)C(F)(F)F)cc2OC(F)F)c1F` [Compound I-72] was tested, and the LC50 [1] was 3.13 µg/mL, the LC50 [2] was 0.881 µg/mL and the LC50 [3] was 11.9 µg/mL. For the same compound, the LC50 [4] was 1.24 µg/mL, the LC50 [5] was 8.2 µg/mL and the LC50 [6] was 0.252 µg/mL (≈ 0.339 µM). For the same compound, the LC50 [7] was 75.4 µg/mL and the LC50 [8] was 0.801 µg/mL.
